Patent US8921307B2, “Synthetic linear apelin mimetics for the treatment of heart failure” (priority 2012, dated 2014)
Where a SMILES comes first, the peptide text is derived from it. [ ]: non-standard residue; d: D form. pGlu = O=C1CC[C@@H](C(=O)O)N1; dNle = CCCC[C@@H](N)C(=O)O; Aib = CC(C)(N)C(=O)O

Tests used:
[1] = Plasma Stability Assay (LC-MS); assay type: in vitro ADME; conditions: male, Sprague-Dawley, rat
Experimental: Plasma Stability Assay: Materials: Working solution: 1 mg/mL test article is prepared in Milli-Q water Extraction solution: Methanol:Acetonitrile:Water (1:1:1) with 0.1% Formic Acid and 400 ng/mL Glyburide. Plasma: Male Sprague-Dawley rat plasma (with sodium heparin), purchased from Bioreclamation LLC (Liverpool, N.Y.). Test article was prepared in one of the following biological matrices: heparinized rat plasma, heparinized rat whole blood or lung homogenate. […] Lung homogenate samples were prepared by diluting lung homogenate to 1 mg/ml protein concentration with phosphate buffered saline (PBS), followed by addition of 5 uL Working solution to 995 uL diluted lung homogenate. The samples were incubated at 37° C. with gentle shaking (65˜75 rpm) in a water bath incubator. […] Afterwards, a pipetting device (Tecan Temo) was used to tranfer the supernatants to another plate and add 50 uL of water to all samples. The plate was vortexed prior to LC-MS analysis. LC-MS Analysis of stability samples HPLC: Agilent 1290 HPLC with autosampler Column: MAC-MOD ACE C18, 3 μm, 30 mm×2.1 mm i.d. Mobile phase A: 0.1% Formic acid in acetonitrile Mobile phase B: 0.1% Formic acid in water Gradient Program: [table]

[2] = Surrogate Activity-Based Plasma Stability Assay; assay type: in vitro ADME; conditions: rat
Experimental: Stability half-life was then calculated by the formula, t½=0.693÷k Surrogate Activity-Based Plasma Stability Assay: […]
2) Calculate slope of value above and […]

hAPJ = molecular target: T1, hAPJ (Homo sapiens, UniProt P35414); assay: hAPJ Calcium Flux Assay; assay type: cell-based; conditions: Chem-5 APJ stable cells, FLIPR calcium flux stimulation; read-out: hAPJ Ca^2+ Flux EC50
T1 sequence (P35414 1-380): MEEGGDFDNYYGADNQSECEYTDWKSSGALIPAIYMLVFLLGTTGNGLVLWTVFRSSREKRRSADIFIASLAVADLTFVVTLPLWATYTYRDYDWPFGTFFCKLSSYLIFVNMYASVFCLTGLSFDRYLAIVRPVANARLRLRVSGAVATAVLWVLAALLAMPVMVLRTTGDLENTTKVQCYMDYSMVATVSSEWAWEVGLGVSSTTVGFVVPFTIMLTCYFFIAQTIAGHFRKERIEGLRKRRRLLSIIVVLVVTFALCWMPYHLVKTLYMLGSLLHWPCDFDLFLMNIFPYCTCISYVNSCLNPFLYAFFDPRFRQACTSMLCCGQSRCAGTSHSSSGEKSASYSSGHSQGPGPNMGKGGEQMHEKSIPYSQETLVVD
How it was run: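 Chem-5 cells stably expressing APJ, loaded 1 h with Calcium 4 dye plus 2.5 mM probenecid at 37 °C. Peptides added at final […] in HBSS/HEPES/0.1% BSA, in triplicate.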

[3] = Surrogate Activity based Plasma stability t½
[4] = Surrogate activity-based Plasma stability t½

Q: For `CCCC[C@@H](NC(=O)[C@@H]1CCCN1C(=O)CNC(=O)[C@H](CCCCN)NC(=O)[C@H](Cc1c[nH]cn1)NC(=O)[C@@H](C)NC(=O)[C@H](CC(C)C)NC(=O)[C@H](CCCNC(=N)N)NC(=O)[C@@H]1CCCN1C(=O)[C@H](CCCNC(=N)N)NC(=O)[C@@H]1CCC(=O)N1)C(=O)N[C@H](CC(C)C)C(=O)N[C@H](Cc1ccccc1)C(=O)O` [Example 14, pE-R-P-R-L-a-H-K-G-P-nle-(D-Leu)-f-OH] ([pGlu]RPRL[dA]HKGP[dNle][dL][dF]-OH), which half-life at 5000 ng/mL [1] is on record?
A: 6.75 h

Q: And the half-life [2, 3]?
A: 3.08 h

Q: What about the half-life [2, 4] of the same compound?
A: 3.08 h

Q: What about the EC50 (hAPJ) of the same compound?
A: 3.2 nM

Q: What does the source list for `CCCC[C@H](NC(=O)[C@@H]1CCCN1C(=O)CNC(=O)[C@H](CCCCN)NC(=O)[C@H](Cc1c[nH]cn1)NC(=O)[C@@H](C)NC(=O)[C@H](CC(C)C)NC(=O)[C@H](CCCNC(=N)N)NC(=O)[C@@H]1CCCN1C(=O)[C@H](CCCNC(=N)N)NC(=O)[C@@H]1CCC(=O)N1)C(=O)N[C@H](C)C(=O)N[C@H](Cc1ccccc1)C(=O)O` [Example 30, pE-R-P-R-L-a-H-K-G-P-Nle-a-f-OH]?
A: half-life at 5000 ng/mL [1]: 2.02 h; half-life [2, 3]: 2.13 h; half-life [2, 4]: 2.14 h; EC50 (hAPJ): 2.4 nM

Q: Which results are given for `CCCC[C@@H](NC(=O)[C@@H]1CCCN1C(=O)CNC(=O)[C@H](CCCCN)NC(=O)C(C)(C)NC(=O)[C@H](CO)NC(=O)[C@@H](CC(C)C)NC(=O)[C@H](CCCNC(=N)N)NC(=O)[C@@H]1CCCN1C(=O)[C@H](CCCNC(=N)N)NC(=O)[C@@H]1CCC(=O)N1)C(=O)N[C@H](C)C(=O)N[C@H](Cc1ccccc1)C(=O)O` [Example 4, pE-R-P-R-(D-Leu)-S-Aib-K-G-P-nle-a-f-OH] ([pGlu]RPR[dL]S[Aib]KGP[dNle][dA][dF]-OH)?
A: half-life at 5000 ng/mL [1]: 6.9 h; half-life [2, 3]: 12.2 h; half-life [2, 4]: 12.2 h; EC50 (hAPJ): 5 nM
